Test results taken from US11633370B2, “Use of scavengers of reactive gamma-ketoaldehydes to extend cell lifespan and healthspan” (Vanderbilt University, priority 2016, dated 2023).

Legend:
N2 WT C. elegans [1] = assay: F3-IsoP quantification by GC/MS, N2; assay type: in vivo; conditions: Day 1 of adulthood until Day 15
Text: (§1) One of the major stimuli for activation of sirtuins is oxidative stress. […] Indeed, the mitochondrial antioxidant manganese superoxide dismutase (MnSOD) has been identified as one of the major protein targets that is deacetylated by sirtuin isoforms, with deacetylation enhancing the enzymatic activity of MnSOD [60]. If SA indeed preserves SIR-2.1 enzymatic function in vivo, the present inventors hypothesized that SA treatment would dose-dependently decrease biomarkers of oxidant injury in a SIR-2.1-dependent manner. To quantify oxidant injury, the present inventors measured F3-isoprostanes (F3-IsoPs). […] To further characterize SA's ability to preserve SIR-2.1 function, the present inventors assessed acetylation of MnSOD at Lys 122.
(§2) F3-Isoprostanes were quantified from SA-treated worms a gas-chromatography-negative ion chemical ionization-mass spectrometry (GC-NICI-MS) approach. […]
(§3) Samples were spiked with 248 pg of deuterated internal standards, [^2H4]-15-F2t-IsoP, quantified and calibrated by the method of Milne et al. and acidified to pH<3 with HCl in preparation for further Separation Phase Extraction (SPE). […]
(§4) Eluates were dried under nitrogen and F3—IsoPs and resuspended in MeOH for separation by Thin Layer Chromatography (TLC). […] Deuterated F2-IsoP standard was measured at m/z 573. F3—IsoP was measured at m/z 567. […]

[2] = system: VC199 (SIR-2.1 deficient strain); assay: F3-IsoP quantification by GC/MS, VC199; assay type: in vivo, C. elegans; conditions: any dose of SA tested, Day 15
Text: as §1, §2, §3, §4

N2 WT C. elegans [3] = assay: mtDNA copy number by qPCR, N2; assay type: in vivo; conditions: with age or with SA treatment
Text: Mitochondria lie at the center of aging biology, playing crucial roles in energy production, carbon substrate metabolism, apoptosis regulation, and redox balance and signaling. Since sirtuins play a major role in regulating mitochondrial function, the present inventors next wanted to investigate whether SA was exerting any of its effects via protection of mitochondrial processes. To investigate SA's effects on mitochondrial respiration, the present inventors administered SA to WT N2 (FIG. 5A) and non-functional SIR-2.1 mutant worms (FIG. 5B) and measured oxygen consumption rate (OCR) in whole worms over several days. […] The present inventors also examined the effect of SA treatment on mitochondrial DNA (mtDNA) integrity.
Relative mitochondrial and nuclear copy number were measured by quantitative, real-time PCR [90]. Primers for NADH dehydrogenase unit 1 (nd1) and a 164 bp region of the cox-4 gene were used in determination of mtDNA copy number. The nd1 forward primer 5′-[…]-3′ and reverse primer 5′-[…]-3′. Cox-4 forward primer 5′-GCCGACTGGAAGAACTTGTC-3′ and reverse primer 5′-[…]-3′. […] Amplified products were detected with SYBR Green (iQ™ SYBR® Green Supermix, Bio-Rad) and fluorescent signal intensities were determined by CFX96 Touch™ Real-Time PCR Detection System (Bio-Rad) by software CFX Manager™ (version 3.1). […]

NCc1ccccc1O [SA, salicylamine]
decrease in F3-IsoP production (N2 WT C. elegans [1]; 100 μM SA, p<0.01): 29% | decrease in F3-IsoP levels (N2 WT C. elegans [1]; 500 μM SA, p<0.005): 44% | F3-IsoP levels [2]: did not significantly decrease | mtDNA copy number relative to nuclear DNA (N2 WT C. elegans [3]): no significant difference
